Results published in patent US20210369710A1, “MODULATORS OF MYC FAMILY PROTO-ONCOGENE PROTEIN” (Nalo Therapeutics, priority 2019, published 2021).

Columns and labels:
MycN Protein = biological target: T1, MycN Protein (Homo sapiens, UniProt P04198); assay: Degradation of MycN protein, Western blot band density in cells; format: cell-based; conditions: HL-60 or SKNBE2 cells; 6 uL of compound (1 mM) added to 3 mL cells; 6 hours; Western blot band density (ImageJ)
T1 construct: endogenous in cells; host or cells: HL-60 or SKNBE2
T1 sequence (P04198 1-464): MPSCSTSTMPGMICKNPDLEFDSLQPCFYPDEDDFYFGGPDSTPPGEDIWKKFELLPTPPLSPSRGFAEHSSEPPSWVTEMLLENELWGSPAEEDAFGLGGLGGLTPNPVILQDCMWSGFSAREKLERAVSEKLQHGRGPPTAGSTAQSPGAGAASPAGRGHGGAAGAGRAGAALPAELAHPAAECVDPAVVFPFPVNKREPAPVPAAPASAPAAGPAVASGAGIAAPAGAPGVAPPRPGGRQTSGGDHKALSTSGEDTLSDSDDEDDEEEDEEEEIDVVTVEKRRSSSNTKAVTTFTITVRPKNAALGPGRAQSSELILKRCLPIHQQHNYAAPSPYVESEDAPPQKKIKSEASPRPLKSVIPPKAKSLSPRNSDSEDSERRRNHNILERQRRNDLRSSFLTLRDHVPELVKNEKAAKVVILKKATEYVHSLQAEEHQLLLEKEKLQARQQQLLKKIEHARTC
Procedure: (§1) In a T150 flask was plated either 2×10^6 of HL-60 (human leukemia cell line) or SKNBE2 (neuroblastoma cell line) cells in a total of 30 mL containing Roswell Park Memorial Institute (RPMI) 1640 Medium (Thermo Fisher, Cat. #11875-085), 10% Fetal Bovine Serum (FBS, Thermo Fisher: Cat. #10437-028), 1% Penicillin/streptomycin (Thermo Fisher: Cat. #10378016), and 1% Amophotericin B (Thermo Fisher, Cat. #15290026). The cells were split every 72 hours by reseeding the HL-60 or SKNBE2 cells, and the passage number was noted. It is noteworthy that cell cultures that were above 40 passages were not used, and most experiments were done with cells of less than 30 passages.
(§2) In a 6-well cell culture plate, a total of 3 mL of either 1×10^6 cells/mL of HL-60 or SKNBE2 cells were seeded, resulting in a total of 3×10^6 cells per well. To each well containing 3 mL of either HL-60 or SKNBE2 cell line was added 6 uL of MycN modulating compound (1 mM) and the resulting plate was shaken from left to right, and not swirled. After 6 hours, the cells were placed in a 15 mL falcon tube and spun at 500 Gs at 4° C. in a swinging bucket centrifuge. The medium was then carefully removed without disturbing the pellet. The pellet was then washed with 3 mLs of chilled phosphate buffered saline (PBS) and subjected to the spin cycle. PBS was then removed and the pellet was lysed in 200 uL of radioimmunoprecipitation (RIPA) lysis buffer (Thermo Fisher: Cat. #899000) that is supplemented with protease and phosphatase inhibitors (Thermo Fisher: Cat. #A32959). The cell lysate was then subjected to spinning in a centrifuge for 10 minutes at 13000G at 4° C. The supernatant was then carefully transferred to a fresh eppendorf tube without disturbing the pellet (˜180 uL). The protein concentration of the cell lysate was then determined by using a bicinchoninic acid (BCA assay) according to manufacturer's protocol (Thermo Fisher: Cat. #23227).
(§3) Cell lysate, approximately 25 ug-30 ug, was loaded per well in a 4-20% polyacrylamide gel (Biorad. Cat. #5671094). After running the dye front off of the gel, the gel was transferred to a nitrocellulose membrane (Biorad: Cat. #1704159) using the transblot turbo system (Biorad: Cat. #1704150) according to manufacturer's protocol. After transferring for 30 minutes, the membrane was blocked with 5% BSA for 1 hour at room temperature. The BSA was then washed off and the primary antibody of choice (1:500) was added, and the membrane was incubated with the primary antibody at 4° C. for overnight. The next morning, the primary antibody was removed and the membrane was washed with 1×-TBST for 10 minutes and repeated three more times. Following the last wash, a secondary antibody (Molecular Devices. Cat. #R8209 or R8208) was added at 1:5000 dilution and incubated for 1 hour at room temperature. Following the incubation with the secondary antibody, the membrane was washed with 1×-TBST for 10 minutes and repeated three more times. Following the last wash, the membrane was washed with de-ionized water twice and dried for at least two hours. Once the membrane is completely dry, the Molecular Devices Spectra Max western system was used to observe the bands. The western image was saved and the band density was measured with ImageJ software.

MycC Protein = biological target: T2, MycC Protein (Homo sapiens, UniProt P01106); assay: Degradation of MycC protein, Western blot band density in cells; format: cell-based; conditions: HL-60 or SKNBE2 cells; 6 uL of compound (1 mM) added to 3 mL cells; 6 hours; Western blot band density (ImageJ)
T2 construct: endogenous in cells; host or cells: HL-60 or SKNBE2
T2 sequence (P01106 whole entry): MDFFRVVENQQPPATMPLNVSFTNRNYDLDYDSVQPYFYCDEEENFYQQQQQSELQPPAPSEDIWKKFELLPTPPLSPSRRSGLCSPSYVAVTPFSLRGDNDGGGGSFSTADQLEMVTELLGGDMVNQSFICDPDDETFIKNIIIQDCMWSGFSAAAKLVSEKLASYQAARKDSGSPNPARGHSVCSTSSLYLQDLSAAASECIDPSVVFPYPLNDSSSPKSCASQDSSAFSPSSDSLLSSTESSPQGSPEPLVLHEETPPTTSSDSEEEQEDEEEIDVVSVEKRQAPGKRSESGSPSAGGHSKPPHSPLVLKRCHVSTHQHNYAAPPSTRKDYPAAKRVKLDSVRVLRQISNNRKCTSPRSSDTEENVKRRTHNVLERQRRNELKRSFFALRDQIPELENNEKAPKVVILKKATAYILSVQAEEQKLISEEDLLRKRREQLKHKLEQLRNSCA
Procedure: as §1, §2, §3

| Dmax at 2 µM (MycN Protein) | Dmax at 2 µM (MycC Protein) | SMILES | % Degradation of MycN (MycN Protein) | % Degradation of MycC (MycC Protein) |
| --- | --- | --- | --- | --- |
| – | – | N#Cc1ccc2c(c1)CC(NC(=O)N[C@H]1CC[C@H](Nc3nccc(Nc4cc(C5CCCC5)[nH]n4)n3)CC1)C2 (stereo partly drawn) [Compound 11 (Fraction 2), 1-(5-cyano-2,3-dihydro-1H-inden-2-yl)-3-((1R,4R)-4-((4-((5-cyclopentyl-1H-pyrazol-3-yl)amino)pyrimidin-2-yl)amino)cyclohexyl)urea] | *** (***: degradation 50-79%) | **** (****: degradation 80-100%) |
| < 20% | < 20% | O=C(NC1CCN(C2COC2)CC1)N[C@H]1CC[C@H](Nc2nccc(Nc3cc(C4CCCC4)[nH]n3)n2)CC1 [Compound 12, 1-((1R,4R)-4-((4-((5-cyclopentyl-1H-pyrazol-3-yl)amino)pyrimidin-2-yl)amino)cyclohexyl)-3-(1-(oxetan-3-yl)piperidin-4-yl)urea] | – | – |
| – | – | CN(c1nccc(Nc2cc(C3CCCC3)[nH]n2)n1)C1CCC(NC(=O)NC2Cc3ccc(C#N)cc3C2)CC1 [Compound 16 (Fraction 1), 1-(5-cyano-2,3-dihydro-1H-inden-2-yl)-3-((1R,4R)-4-((4-((5-cyclopentyl-1H-pyrazol-3-yl)amino)pyrimidin-2-yl)(methyl)amino)cyclohexyl)urea] | *** (***: degradation 50-79%) | **** (****: degradation 80-100%) |
| – | – | CN(c1nccc(Nc2cc(C3CCCC3)[nH]n2)n1)C1CCC(NC(=O)NC2Cc3ccc(C#N)cc3C2)CC1 [Compound 16 (Fraction 2), 1-(5-cyano-2,3-dihydro-1H-inden-2-yl)-3-((1R,4R)-4-((4-((5-cyclopentyl-1H-pyrazol-3-yl)amino)pyrimidin-2-yl)(methyl)amino)cyclohexyl)urea] | *** (***: degradation 50-79%) | **** (****: degradation 80-100%) |
| 80 to 100% | 80 to 100% | Cc1nc(-c2ccc3c(c2)CC(NC(=O)N[C@H]2CC[C@H](Nc4nccc(Nc5cc(C6CCCC6)[nH]n5)n4)CC2)C3)no1 (stereo partly drawn) [Compound 20, 1-((1R,4R)-4-((4-((5-cyclopentyl-1H-pyrazol-3-yl)amino)pyrimidin-2-yl)amino)cyclohexyl)-3-(5-(5-methyl-1,2,4-oxadiazol-3-yl)-2,3-dihydro-1H-inden-2-yl)urea] | – | – |
| 20 to 49% | < 20% | N#Cc1ccc2c(c1)CC(NC(=O)N[C@H]1CC[C@H](Nc3nccc(Nc4cc(C5CC5)[nH]n4)n3)CC1)C2 (stereo partly drawn) [Compound 21, 1-(5-cyano-2,3-dihydro-1H-inden-2-yl)-3-((1R,4R)-4-((4-((5-cyclopropyl-1H-pyrazol-3-yl)amino)pyrimidin-2-yl)amino)cyclohexyl)urea] | – | – |
| < 20% | 20 to 49% | O=C(NC1CCS(=O)(=O)CC1)N[C@H]1CC[C@H](Nc2nccc(Nc3cc(C4CCCC4)[nH]n3)n2)CC1 [Compound 24] | – | – |
| < 20% | < 20% | O=C(NC1CCCS(=O)(=O)C1)N[C@H]1CC[C@H](Nc2nccc(Nc3cc(C4CCCC4)[nH]n3)n2)CC1 (stereo partly drawn) [Compound 25] | – | – |
| 20 to 49% | < 20% | CS(=O)(=O)[C@H]1CCCC(NC(=O)N[C@H]2CC[C@H](Nc3nccc(Nc4cc(C5CCCC5)[nH]n4)n3)CC2)C1 (stereo partly drawn) [Compound 26] | – | – |
| < 20% | < 20% | Cc1cc(Nc2ccnc(N[C@H]3CC[C@H](NC(=O)N[C@H]4CC[C@H](S(C)(=O)=O)CC4)CC3)n2)n[nH]1 [Compound 32] | – | – |
| < 20% | 50 to 79% | O=C(NC1CS(=O)(=O)C1)N[C@H]1CC[C@H](Nc2nccc(Nc3cc(C4CCCC4)[nH]n3)n2)CC1 [Compound 34] | – | – |
| 80 to 100% | 20 to 49% | O=C(N[C@@H]1CCC[C@H](C(F)(F)F)C1)N[C@H]1CC[C@H](Nc2nccc(Nc3cc(C4CCCC4)[nH]n3)n2)CC1 [Compound 35, 1-((1R,4R)-4-((4-((5-cyclopentyl-1H-pyrazol-3-yl)amino)pyrimidin-2-yl)amino)cyclohexyl)-3-((1R,3S/1S,3R)-3-(trifluoromethyl)cyclohexyl)urea] | – | – |
| < 20% | < 20% | O=C(NC1CCC(N2CCOC2=O)CC1)N[C@H]1CC[C@H](Nc2nccc(Nc3cc(C4CCCC4)[nH]n3)n2)CC1 (stereo partly drawn) [Compound 37, 1-((1R,4R)-4-((4-((5-cyclopentyl-1H-pyrazol-3-yl)amino)pyrimidin-2-yl)amino)cyclohexyl)-3-(4-(2-oxooxazolidin-3-yl)cyclohexyl)urea] | – | – |
| 20 to 49% | 50 to 79% | CC1(NC(=O)N[C@H]2CC[C@H](Nc3nccc(Nc4cc(C5CCCC5)[nH]n4)n3)CC2)CCOCC1 [Compound 38, 1-((1R,4R)-4-((4-((5-cyclopentyl-1H-pyrazol-3-yl)amino)pyrimidin-2-yl)amino)cyclohexyl)-3-(4-methyltetrahydro-2H-pyran-4-yl)urea] | – | – |
| 50 to 79% | 20 to 49% | O=C(Nc1cccc(C(F)(F)F)c1)N[C@H]1CC[C@H](Nc2nccc(Nc3cc(C4CCCC4)[nH]n3)n2)CC1 [Compound 39, 1-((1R,4R)-4-((4-((5-cyclopentyl-1H-pyrazol-3-yl)amino)pyrimidin-2-yl)amino)cyclohexyl)-3-(3-(trifluoromethyl)phenyl)urea] | – | – |
| 50 to 79% | 50 to 79% | O=C(Nc1cccc(C(F)(F)F)c1)N[C@H]1CC[C@@H](Nc2nccc(Nc3cc(C4CCCC4)[nH]n3)n2)CC1 [Compound 40, 1-((1S,4S)-4-((4-((5-cyclopentyl-1H-pyrazol-3-yl)amino)pyrimidin-2-yl)amino)cyclohexyl)-3-(3-(trifluoromethyl)phenyl)urea] | – | – |
| 20 to 49% | 20 to 49% | COCCNC(=O)NC1CCC(Nc2nccc(Nc3cc(C4CCCC4)[nH]n3)n2)CC1 [Compound 43, 1-((1R,4R)-4-((4-((5-cyclopentyl-1H-pyrazol-3-yl)amino)pyrimidin-2-yl)amino)cyclohexyl)-3-(2-methoxyethyl)urea] | – | – |
| < 20% | 20 to 49% | CO[C@H]1C[C@H](NC(=O)NC2CCC(Nc3nccc(Nc4cc(C5CCCC5)[nH]n4)n3)CC2)C1 (stereo partly drawn) [Compound 44, 1-((1R,4R)-4-((4-((5-cyclopentyl-1H-pyrazol-3-yl)amino)pyrimidin-2-yl)amino)cyclohexyl)-3-((1R,3R)-3-methoxycyclobutyl)urea] | – | – |
| 20 to 49% | < 20% | O=C(NC1COC1)N[C@H]1CC[C@H](Nc2nccc(Nc3cc(C4CCCC4)[nH]n3)n2)CC1 [Compound 46] | – | – |
| < 20% | < 20% | O=C(NC1CC2(COC2)C1)N[C@H]1CC[C@H](Nc2nccc(Nc3cc(C4CCCC4)[nH]n3)n2)CC1 [Compound 47] | – | – |
| < 20% | 20 to 49% | CC(=O)N1CC(NC(=O)N[C@H]2CC[C@H](Nc3nccc(Nc4cc(C5CCCC5)[nH]n4)n3)CC2)C1 [Compound 48, 1-(1-acetylazetidin-3-yl)-3-((1R,4R)-4-((4-((5-cyclopentyl-1H-pyrazol-3-yl)amino)pyrimidin-2-yl)amino)cyclohexyl)urea] | – | – |
